Peptide text beside a SMILES is read from it.

In the case of `CC12CCC(O)CC1CCC1C2CCC2(C)C(C3=CC(=O)OC3)C(O)CC12O` (configuration not stated), the logP (in general, a log measure of how a compound divides between an organic and an aqueous phase) was 1.6.

`O=P1(N(CCCl)CCCl)NCCCO1` (configuration not stated) returned a logP of 0.63.

As to `Cc1cc(Cl)ccc1N=CN(C)C`, the logP stood at 2.89.

The molecule `Nc1ccc(C(=O)O)c(Br)c1` yielded a logP of 1.49.

As for `O=C(O)COc1cccc(F)c1`, the logP amounted to 1.48.

For `NC(Cc1c[nH]c2ccc(F)cc12)C(=O)O` (configuration not stated), the logP was -0.71.

The molecule `O=C(C(F)(F)F)C(F)(F)F` had a logP of 1.46.

Molecule `C=CC=C` came in with a logP of 1.99.

With `CN(C)C(=O)OCc1ccc(I)cc1`, the logP was 3.32.

Molecule `CNC(=O)c1ccoc1` had a logP of 0.34.

In the case of `NCC(=O)NCC(=O)O`, the logP was -2.92.

Regarding `COc1cc(Cl)c(Cl)cc1O`, the logP is 3.26.

Take `O=S(=O)(Nc1ccc(Cl)cc1)C(F)F`: the logP was 2.84.

Regarding `Clc1ccc(Cl)c(-c2ccc(Cl)c(Cl)c2)c1`, the logP was found to be 6.23.

Molecule `Cc1cc(C)cc(O)c1` had a logP of 2.35.

As for `CN(C)C(N(C)C)=S(I)c1ccc(I)cc1` (configuration not stated), the logP turned out to be 0.28.

As to `CC(=S)Nc1ccccc1`, the logP was found to be 1.71.

For `Clc1ccc(-c2c(Cl)cccc2Cl)cc1`, the logP worked out at 5.75.

Take `CCOCC(O)Cn1cnc([N+](=O)[O-])n1` (configuration not stated): the logP is -0.07.

In the case of `N#CCCCc1ccccc1`, the logP came to 2.21.

The molecule `CN(C)C(N(C)C)=S(I)c1ccc(Cl)cc1` (configuration not stated) registered a log partition coefficient (logP) of -0.2.

Turning to `CCCCOC(=O)c1ccc(O)cc1`, the logP turned out to be 3.57.

Take `FC(F)(F)c1nc2ccc(Cl)cc2[nH]1`: the logP came out at 3.39.

Molecule `CC[C@H](C)[C@H](NC(C)=O)C(=O)N[C@@H](CC(N)=O)C(N)=O` (Ac-Ile-Asn-NH2) had a logP of -1.41.

`CCCCOc1cccc(C=C(C(=O)OCC)C(=O)OCC)c1` showed a logP of 4.03.

As for `CNC(=O)Oc1cc(Cl)ccc1Cl`, the logP came out at 2.44.

In turn, `C#CC(C)(C)O` had a logP of 0.28.

For `CCC(C)NC(=O)C=C(Br)c1ccccc1` (configuration not stated), the logP was determined as 3.56.

On to `CCCc1ccccc1O`, for which the logP was 2.93.

As to `C=CC(=O)OC`, the logP was 0.8.

For `CCOC(=O)C(C#N)=Cc1ccccc1`, the logP came out at 2.43.

`CCC(=O)c1ccc(O)cc1` had a logP of 2.03.

For `O=C1C(F)=C(N2CC2)C(=O)C(N2CC2)=C1N1CC1`, the logP is 0.14.

In turn, `CN(C)C(=O)Nc1cccc(C(F)(F)F)c1` registered a logP of 2.42.

For the molecule `CCOc1cn[nH]c1`, the logP was found to be 0.8.

`COC(=O)COc1ccccc1C` displayed a logP of 2.08.

`CC(=O)c1cccc(Cl)c1`: the logP turned out to be 2.51.

In the case of `Nc1nc2ccccc2[nH]1`, the logP came out at 0.91.

Take `C=CCOc1ccc(CC(=O)O)cc1Cl`: the logP is 2.48.

Molecule `S=C=Nc1ccc(-c2ccccc2)cc1` registered a logP of 4.66.

`CCn1cnc([N+](=O)[O-])n1` had a logP of -0.19.

With `c1ccc(Cc2ccccc2)cc1`, the logP worked out at 4.14.

For `OCCCCc1cccnc1`, the lipophilicity (logP) turned out to be 0.92.

Take `CBr`: the logP came to 1.19.

In the case of `COc1cccc2c1C(=N)c1c(O)c3c(c(O)c1C2=O)CC(O)(C(=O)CO)CC3OC1CC(N2CCOCC2)C(O)C(C)O1` (configuration not stated), the logP came to 1.8.

For the molecule `O=C1c2ccccc2C(=O)C1c1ccccc1`, the logP is 2.9.

`CCOCOCC`: the logP was 0.84.

In turn, `c1ccc(C23CCN(CC2)CC3)cc1` yielded a logP of 2.54.

The molecule `COc1ccc(C)cc1N` had a logP of 1.74.

`Cc1ccc(OC(=O)c2ccc(N)cc2O)cc1` yielded a logP of 3.38.

Molecule `CN1CC(=O)NC1=N` returned a logP of -1.76.

For `CC(=O)c1ccc(C#N)cc1`, the logP is 1.22.

In turn, `NC(=O)[C@@H]1CCCN1C(=O)[C@H](Cc1cnc[nH]1)NC(=O)[C@@H]1CCC(=O)N1` showed a logP of -2.46.

In the case of `O=C(Nc1ccc(Br)cc1)C(F)(F)F`, the logP was 3.34.

Consider `COP(=S)(OC)Oc1ccc([N+](=O)[O-])cc1Cl`, for which the logP amounted to 3.58.

`Brc1ccccn1`: the lipophilicity (logP) worked out at 1.42.

`c1ccc(OP2OCCO2)cc1` registered a logP of 1.42.

In turn, `O=C(O)c1cc(O)cc(O)c1` registered a logP of 0.86.

Molecule `Oc1ccc(C(c2ccccc2)c2ccc(O)cc2)cc1` displayed a logP of 4.3.

For `O=CNc1cccc(Cl)c1`, the logP was determined as 1.9.

`CCCC(=NOCC)C1C(=O)CC2(CCCCC2C)OC1=O` (configuration not stated) displayed a logP of 3.9.

`O=C(O)Cc1cccc(Br)c1` yielded a logP of 2.37.

Molecule `ClC(Cl)=Nc1ccccc1` gave a logP of 2.54. This logP and that of the molecule before are within 0.2 log units of each other.

In turn, `CC=C(C)C1(C)CC(=O)C(C(CCC)=NOCC)C(=O)O1` (configuration not stated) came in with a logP of 3.4.

As to `Cc1ncc([N+](=O)[O-])n1CC(C)O` (configuration not stated), the logP turned out to be 0.22.

As to `Nc1cc(N2CCCCC2)nc(N)[n+]1[O-]`, the logP amounted to 1.24.

`O=P1(NCCCl)OCCCN1CCCl` (configuration not stated): the logP is 0.86.

In turn, `CCN(CC)C(=O)[C@@H]1C=C2c3cccc4[nH]cc(c34)C[C@H]2N(C)C1` had a logP of 2.95.

As for `O=C1CC(=O)N(c2ccccc2)N1c1ccccc1`, the logP was 1.45.

`CCCCOc1ccc(C(=O)OCCN(C)C)cc1` came in with a logP of 3.91.

In the case of `Cc1cccc(C#N)n1`, the logP was found to be 0.84.

Molecule `O=C(O)Cc1ccc(C(F)(F)F)cc1` displayed a lipophilicity (logP) of 2.45.

Molecule `O=C(NC(=O)c1ccccc1O)c1ccccc1O` registered a logP of 1.92.

In the case of `NC(=O)CCl`, the logP is -0.53.

The molecule `S=C1CCCCN1` came in with a logP of 0.13.

`O=[N+]([O-])c1ccc(CCO)cc1` displayed a logP of 1.12.

`CCCNC(C)CC` (configuration not stated) gave a logP of 1.91.

The molecule `CCC(=O)OC1(C(C)=O)C(C)CC2C3CCC4=CC(=O)C=CC4(C)C3(F)C(O)CC21C` (configuration not stated) showed a logP of 3.09.

Take `COC(=O)NC(=S)Nc1ccccc1NC(=S)NC(=O)OC`: the logP is 1.4.

Consider `CC(=O)OC(C)(C)C`, for which the logP amounted to 1.76.

`COc1ccc(C=CNC=O)cc1` yielded a logP of 1.94.

Regarding `ClC(Cl)C(Cl)Cl`, the logP amounted to 2.39.

`O=C(O)c1ccoc1` yielded a logP of 1.03.

For `CCCCNCCC`, the logP came out at 2.12.

In turn, `CCNC(=O)c1[nH]nc(C)c1[N+](=O)[O-]` gave a logP of 0.13.

`CCCOP(=O)(OCCC)OCCC` displayed a log partition coefficient (logP) of 1.87.

`Nc1nc(N)nc(N)n1`: the logP was -1.37.

`OCCN1CCN(CCCN2c3ccccc3Sc3ccc(Cl)cc32)CC1` showed a logP of 4.2.

`N#Cc1ccnc2ccccc12` gave a logP of 1.98.

Regarding `Nc1ccc(S(=O)(=O)Nc2ccnn2-c2ccccc2)cc1`, the logP was found to be 1.52.

The molecule `O=Cc1ccc(Cl)cc1` had a logP of 2.1.

The molecule `O=C(O)c1ccccc1Br` gave a logP of 2.2. This logP and that of the molecule before are within 0.2 log units of each other.

Molecule `CC[C@H](C)[C@H](NC(=O)[C@@H](NC(=O)[C@H](C)NC(C)=O)C(C)C)C(N)=O` came in with a lipophilicity (logP) of -0.2.

Molecule `NCCCCc1ccccn1` displayed a logP of 0.86.

`CCC(Cl)(CC)C(=O)NC(N)=O`: the logP came out at 1.4.

`CC(C)Cl`: the logP was found to be 1.9.

`CCCc1cc(OC)c(CC(C)N)cc1OC` (configuration not stated) had a logP of 3.37.

Regarding `COc1cccc(C(N)=O)c1`, the logP was 0.85.

For the molecule `CNC`, the logP was -0.38.

In turn, `FC(F)(Cl)C(F)(F)Cl` came in with a logP of 2.82.

Consider `OCc1ccc(O)cc1`, for which the logP turned out to be 0.25.

Turning to `CC1=NN(CCOc2ccc3ccccc3c2)C(=O)C1`, the logP was found to be 2.74.

`CCCNC(=O)c1[nH]nc(C)c1[N+](=O)[O-]`: the logP stood at 0.65.

For the molecule `CC12CCC3C(CCC4CC(=O)CCC43C)C1CCC2=O` (configuration not stated), the logP was found to be 3.6.

`CC1CC2OC(=O)C3(C)C2C(OC3(C)O)C2(C)C(=O)C=CC12` (configuration not stated) displayed a logP of 0.3.

Molecule `O=C(O)Cc1ccc(Br)cc1` registered a logP of 2.31.

The molecule `CNC(=O)c1ccco1` came in with a logP of 0.23.

On to `Cc1cccc(Cl)c1`, for which the logP was determined as 3.28.

Take `CC(=O)c1ccc2ncccc2c1`: the logP was 1.58.

The molecule `C1=Cc2ccccc2C1` displayed a logP of 2.92.

With `CN(C)C`, the logP amounted to 0.16.

As for `N#Cc1cccc(F)c1`, the logP is 1.47.

Regarding `C=CCOc1cc(N)ccc1C(=O)O`, the logP is 1.25.

`O=C1c2ccccc2C(=O)c2ccccc21` gave a logP of 3.39.

The molecule `O=C(O)Cc1ccccc1Oc1ccc(Cl)cc1Cl` registered a logP of 4.8.

For `CCCC(=NOCC)C1C(=O)CC2(CCCCC2)OC1=O` (configuration not stated), the logP is 3.62.

On to `NNC(=O)c1ccccc1[N+](=O)[O-]`, for which the logP was -0.54.

In turn, `CN(C)C(N(C)C)=S(I)c1cccc([N+](=O)[O-])c1` (configuration not stated) showed a logP of -0.88.

In the case of `Nc1ccc2cc3ccc(N)cc3nc2c1`, the lipophilicity (logP) was 1.83.

For the molecule `COc1cccc(OC)c1C(=O)O`, the logP was 0.66.

The molecule `Cc1c(Cl)cc(-c2ccc(=O)[nH]n2)cc1Cl` yielded a logP of 3.2.

`CN(C)C(N(C)C)=S(I)c1ccccc1Br` (configuration not stated) gave a logP of 0.06.

For `C=C(C)CC1(CC)C(=O)NC(=S)NC1=O`, the logP amounted to 2.19.

Molecule `O=C(O)CSc1ccccc1` showed a log partition coefficient (logP) of 1.88.

`O=C1Cc2ccccc2N1` displayed a logP of 1.16.

In the case of `c1ccc(-c2ccncc2)nc1`, the logP turned out to be 1.58.

Take `N#Cc1ccc(CC(=O)Nc2ccccc2)cc1`: the log partition coefficient (logP) was 2.82.

`O=C(Nc1ccccc1)NC1CCCCC1` gave a logP of 2.77.

`OCC(Br)(Br)Br` showed a logP of 2.1.

In the case of `CCCCCCCCBr`, the logP was found to be 4.89.

`O=NN1CCCC1` displayed a logP of -0.19.

`CCOC(=O)C(F)F` yielded a log partition coefficient (logP) of 0.87.

`CC(=O)CC(C)=O` registered a logP of 0.4.

With `Oc1ccc(Cl)cc1Cc1cc(Cl)ccc1O`, the logP worked out at 4.26.

In turn, `Nc1cccc(O)c1` returned a logP of 0.21.

Turning to `Oc1cc(Cl)cc(Cl)c1Cl`, the logP is 3.84.

In the case of `CC(C)(C)NC[C@H](O)COc1nsnc1N1CCOCC1`, the logP was 1.83.

`O=C(O)C(c1ccccc1)c1ccccc1`: the logP is 3.09.

Consider `Fc1ccccc1Cn1cc[nH]c1=S`, for which the logP stood at 1.77.

For `CSCC(=O)C=NO`, the logP amounted to 1.21.

In the case of `CCC(C)c1cc([N+](=O)[O-])cc(C(C)CC)c1O` (configuration not stated), the logP amounted to 4.8.

In turn, `COC1=C(OC)C(=O)C(C)=C(C)C1=O` registered a logP of 1.26.

Values taken from the OPERA property sets (Mansouri et al. 2018).
